Results published in patent US20220388972A1, “CHROMAN-4-ONE DERIVATIVES FOR THE TREATMENT AND PROPHYLAXIS OF HEPATITIS B VIRUS INFECTION” (Hoffmann-La Roche Inc., priority 2018, published 2022).

Tested on: HBV cccDNA (HBeAg as surrogate marker) in HepDES19 cells
Test: Engineered HepDES19 primary screen assay (HBeAg as surrogate marker for cccDNA)
Assay type: cell-based
Details: Hepatitis B virus, HepDES19, 120 h
Excerpt: The assay was employed to screen for cccDNA inhibitors. HepDES19 is a cccDNA-producing cell line. In this cell line, HBeAg in the cell culture supernatant as surrogate marker, as HBeAg production depends on cccDNA level and activity. HepDES19 is an engineered cell line which contains a 1.1 unit length HBV genome, and pgRNA transcription from the transgene is controlled by Tetracycline (Tet). In the absence of Tet, pgRNA transcription will be induced, but HBV e antigen (HBeAg) could not be produced from this pgRNA due to very short leader sequence before the HBeAg start codon and the start codon is disrupted. Only after cccDNA is formed, the missing leader sequence and start codon mutation would be restored from the 3′-terminal redundancy of pgRNA, and then HBeAg could be synthesized. Therefore, HBeAg could be used as a surrogate marker for cccDNA (Zhou, T. et al., Antiviral Res. (2006), 72 (2), 116-124; Guo, H. et al., J. Virol. (2007), 81 (22), 12472-12484).
HepDES19 cells were seeded at 2×10^6 cells per T150 flask and cultured with the culture medium (Dulbecco's Modified Eagle Medium: Nutrient Mixture F-12 [DMEM-F12, Gibco Cat. 11320-82], 10% Fetal Bovine Serum [FBS, Clontech Cat. 631101], 0.1 mM Non-Essential Amino Acids Solution [NEAA, Gibco Cat. 11140-050], 50 μg/mL Penicillin-Streptomycin [PS, Invitrogen Cat. 15140-163], 500 μg/mL Geneticin [G418, Invitrogen Cat. 10131-027]) containing 3 μg/mL Tet (Sigma, Cat. 87128) for 5 days. Cells were then seeded at 4×10^6 cells per T150 in the same culture medium as described above in the absence of Tet for 8 days. Cells were then harvested and frozen at density of 2×10^6 cells per mL. For compound testing, the frozen cells were thawed and seeded into 96-well plates at a density of 6×10^4 cells per well. At 24 hours after seeding, half log serial dilutions of compounds made with Dimethyl sulfoxide (DMSO, Sigma, Cat. D2650) were further diluted with the same culture medium as described above before they were added to the cells to reach desired final compound concentrations and 1% DMSO concentration. Plates were then incubated at 37° C. for another 5 days before measurement of HBeAg level and cell viability. Intracellular HBeAg level were measured with enzyme-linked immunosorbent assay (ELISA) kit (Shanghai Kehua Diagnostic Medical Products Co., Ltd). Cell viability was assessed using Cell Counting Kit-8 (DonJindo, Cat. CK04-20). IC50 values were derived from the dose-response curve using 4 parameters logistic curve fit method.
The compounds of the present invention were tested for their capacity to inhibit extracellular HBeAg level as described herein.

SMILES	IC50
COc1ccc2c(c1Cl)OC(c1ccc(C(F)(F)F)cc1OCCC(=O)O)CC2=O (stereo not shown) [Example 4, 3-[2-(8-chloro-7-methoxy-4-oxo-chroman-2-yl)-5-(trifluoromethyl)phenoxy]propanoic Acid]	5.25 µM
COc1cc(Cl)c2c(c1)C(=O)CC(c1ccc(C(F)(F)F)cc1OCCC(=O)O)O2 (stereo not shown) [Example 5, 3-[2-(8-chloro-6-methoxy-4-oxo-chroman-2-yl)-5-(trifluoromethyl)phenoxy]propanoic Acid]	3.06 µM
O=C(O)CCOc1cc(C(F)(F)F)ccc1C1CC(=O)c2c(O)ccc(Cl)c2O1 (stereo not shown) [Example 6, 3-[2-(8-chloro-5-hydroxy-4-oxo-chroman-2-yl)-5-(trifluoromethyl)phenoxy]propanoic Acid]	5.22 µM
Cc1cc(C2CC(=O)c3cccc(Cl)c3O2)c(OCCC(=O)O)cc1Br (stereo not shown) [Example 7, 3-[5-bromo-2-(8-chloro-4-oxo-chroman-2-yl)-4-methyl-phenoxy]propanoic Acid]	9.41 µM
COc1cc(C2CC(=O)c3cccc(Cl)c3O2)c(OCCC(=O)O)cc1Br (stereo not shown) [Example 8, 3-[5-bromo-2-(8-chloro-4-oxo-chroman-2-yl)-4-methoxy-phenoxy]propanoic Acid]	11.3 µM
COc1cc(OCCC(=O)O)c(C2CC(=O)c3cccc(Cl)c3O2)cc1C (stereo not shown) [Example 9, 3-[2-(8-chloro-4-oxo-chroman-2-yl)-5-methoxy-4-methyl-phenoxy]propanoic Acid]	9.41 µM
COc1cc(C2CC(=O)c3cccc(Cl)c3O2)c(OCCC(=O)O)cc1Cl (stereo not shown) [Example 10, 3-[5-chloro-2-(8-chloro-4-oxo-chroman-2-yl)-4-methoxy-phenoxy]propanoic Acid]	11.4 µM
O=C(O)CCOc1cc2c(cc1C1CC(=O)c3cccc(Cl)c3O1)OCO2 (stereo not shown) [Example 12, 3-[[6-(8-chloro-4-oxo-chroman-2-yl)-1,3-benzodioxol-5-yl]oxy]propanoic Acid]	10.1 µM
Cc1cc(C2CC(=O)c3cccc(Cl)c3O2)c(OCCC(=O)O)cc1Cl (stereo not shown) [Example 14, 3-[5-chloro-2-(8-chloro-4-oxo-chroman-2-yl)-4-methyl-phenoxy]propanoic Acid]	1.05 µM
O=C(O)CCOc1cc(OC(F)(F)F)c(Br)cc1C1CC(=O)c2cccc(Cl)c2O1 (stereo not shown) [Example 15, 3-[4-bromo-2-(8-chloro-4-oxo-chroman-2-yl)-5-(trifluoromethoxy)phenoxy]propanoic Acid]	1.5 µM
O=C(O)CCOc1cc(Br)ccc1[C@@H]1CC(=O)c2cccc(Cl)c2O1 [Example 16-A, 3-[5-bromo-2-[(2S)-8-chloro-4-oxo-chroman-2-yl]phenoxy]propanoic Acid]	2.43 µM
O=C(O)CCOc1cc(Br)ccc1[C@H]1CC(=O)c2cccc(Cl)c2O1 [Example 16-B, 3-[5-bromo-2-[(2R)-8-chloro-4-oxo-chroman-2-yl]phenoxy]propanoic Acid]	0.48 µM
O=C1CC(c2ccc(C(F)(F)F)cc2OC2CC(C(=O)O)C2)Oc2c(Cl)cccc21 (stereo not shown) [Example 17, 3-[2-(8-chloro-4-oxo-chroman-2-yl)-5-(trifluoromethyl)phenoxy]cyclobutanecarboxylic Acid]	1.56 µM
Cc1cc(C2CC(=O)c3cccc(Cl)c3O2)c(OC2CC(C(=O)O)C2)cc1Cl (stereo not shown) [Example 18, 3-[5-chloro-2-(8-chloro-4-oxo-chroman-2-yl)-4-methyl-phenoxy]cyclobutanecarboxylic Acid]	0.765 µM
CC(C)(COc1cc(C(F)(F)F)ccc1C1CC(=O)c2cccc(Cl)c2O1)C(=O)O (stereo not shown) [Example 19, 3-[2-(8-chloro-4-oxo-chroman-2-yl)-5-(trifluoromethyl)phenoxy]-2,2-dimethyl-propanoic Acid]	0.26 µM
O=C1CC(c2ccc(C(F)(F)F)cc2OCCOC2CC(C(=O)O)C2)Oc2c(Cl)cccc21 (stereo not shown) [Example 20, 3-[2-[2-(8-chloro-4-oxo-chroman-2-yl)-5-(trifluoromethyl)phenoxy]ethoxy]cyclobutanecarboxylic Acid]	0.01 µM
